Reference: patent US20250136581A1, “SUBSTITUTED TRIAZOLE DERIVATIVE, PREPARATION METHOD THEREFOR, PHARMACEUTICAL COMPOSITION THEREOF, AND USE THEREOF” (SHANGHAI SIMR BIOTECHNOLOGY CO., LTD., priority 2021, published 2025)

Assays:
[1] = molecular target: human α5β3γ2 receptors (α5-GABAA receptor) (Homo sapiens (Human), UniProt P18507+P31644); test: 3H-flunitrazepam competition binding, human α5β3γ2 GABAA receptor; conditions: HEK293 cell membranes, 1 nM 3H-flunitrazepam; read-out: α5-GABAAR Ki
In short: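 Radioligand displacement of 1 nM 3H-flunitrazepam from membranes of HEK293 lines stably expressing the human subtypes, 1 h at room temperature, compound in 8-point 4-fold series. Bound label on GF/C filters counted by scintillation; Ki derived from fitted IC50, with flumazenil as low control.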

[2] = molecular target: α5-GABAA receptor (α5, β3, γ2 subunits) (Homo sapiens (Human), UniProt P18507+P31644); test: Whole cell patch clamp, inverse agonist efficacy in HEK293 cells expressing α5-GABAA receptor; type: cell-based; conditions: HEK293, drug 100 nM, GABA 0.05 μM, −60 mV; read-out: Compound inverse agonist efficacy %
In short: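 Compounds screened at 100 nM against current induced by 0.05 μM GABA in monoclonal HEK293 cells stably expressing α5β3γ2 GABAA receptors. Recording by whole-cell voltage clamp (−60 mV, pH 7.4 bath, CsCl pipette); efficacy calculated from leak-corrected currents before and after drug.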

Row | SMILES | Ki [1] | inhibition at 0.1 µM [2]
1 | O=C1CN(c2ccc(OCc3c(Cl)nnn3-c3ccc(F)cc3)nn2)CCN1 [Example 189, 4-(6-((4-Chloro-1-(4-fluorophenyl)-1H-1,2,3-triazol-5-yl)methoxy)pyridazin-3-yl)piperazin-2-one] | 9.44 nM | 42.1%
2 | Cc1nnn(-c2ccc(C(F)F)cc2)c1COc1ccc(N2CCN3CC(C(C)C)NC(=O)[C@@H]3C2)nn1 (stereo partly drawn) [Example 200, (9aS)-8-(6-((1-(4-(Difluoromethyl)phenyl)-4-methyl-1H-1,2,3-triazol-5-yl)methoxy)pyridazin-3-yl)-3-isopropylhexahydro-2H-pyrazino[1,2-a]pyrazin-1(6H)-one] | 1.9 nM | 60.1%
3 | Cc1nnn(-c2ccc(C(F)F)cc2)c1COc1ccc(N2CC(C(=O)Nc3ccncc3)C2)nn1 [Example 52, 1-(6-((1-(4-(Difluoromethyl)phenyl)-4-methyl-1H-1,2,3-triazol-5-yl)methoxy)pyridazin-3-yl)-N-(pyridin-4-yl)azetidine-3-carboxamide] | 1.1 nM | 45.9%
4 | Cc1nnn(-c2ccc(C(F)F)cc2)c1COc1ccc(N2CC(C(=O)NC3CC3)C2)nn1 [Example 44, N-Cyclopropyl-1-(6-((1-(4-(difluoromethyl)phenyl)-4-methyl-1H-1,2,3-triazol-5-yl)methoxy)pyridazin-3-yl)azetidine-3-carboxamide] | 2.31 nM | 49.6%
5 | Cc1nnn(-c2ccc(C(F)F)cc2)c1COc1ccc(N2CCN(CC(F)(F)F)C(=O)C2)nn1 [Example 62, 4-(6-((1-(4-(Difluoromethyl)phenyl)-4-methyl-1H-1,2,3-triazol-5-yl)methoxy)pyridazin-3-yl)-1-(2,2,2-trifluoroethyl)piperazin-2-one] | 1.18 nM | 44.6%
6 | Cc1nnn(-c2ccc(C(F)F)cc2)c1COc1ccc(N2CCN3CCN(C4COC4)C(=O)[C@@H]3C2)nn1 [Example 147, (S)-8-(6-((1-(4-(Difluoromethyl)phenyl)-4-methyl-1H-1,2,3-triazol-5-yl)methoxy)pyridazin-3-yl)-2-(oxetan-3-yl)hexahydro-2H-pyrazino[1,2-a]pyrazin-1(6H)-one] | 6.55 nM | 54.5%

Results, then the compound that gave them:

Row | Ki [1] | inhibition at 0.1 µM [2] | SMILES
7 | 1.37 nM | 46.4% | COCCN1CCN(c2ccc(OCc3c(C)nnn3-c3ccc(C(F)F)cc3)nn2)CC1=O [Example 139, 4-(6-((1-(4-(Difluoromethyl)phenyl)-4-methyl-1H-1,2,3-triazol-5-yl)methoxy)pyridazin-3-yl)-1-(2-methoxyethyl)piperazin-2-one]
8 | 1.45 nM | 41.1% | CNS(=O)(=O)C1CCN(c2ccc(OCc3c(C)nnn3-c3ccc(C(F)F)cc3)nn2)C1 (stereo not shown) [Example 64, 1-(6-((1-(4-(Difluoromethyl)phenyl)-4-methyl-1H-1,2,3-triazol-5-yl)methoxy)pyridazin-3-yl)-N-methylpyrrolidine-3-sulfonamide]
9 | 4.31 nM | 47.7% | Cc1nnn(-c2ccc(C(F)F)cc2)c1COc1ccc(N2CCN[C@@H](C(=O)O)C2)nn1 [Example 28, (R)-4-(6-((1-(4-(Difluoromethyl)phenyl)-4-methyl-1H-1,2,3-triazol-5-yl)methoxy)pyridazin-3-yl)piperazine-2-carboxylic acid]
10 | 2.4 nM | 48.4% | Cc1nnn(-c2ccc(C(F)F)cc2)c1COc1ccc(N2CC[C@H]3CCNC(=O)[C@@H]3C2)nn1 (relative stereo) [Example 124, trans-7-(6-((1-(4-(Difluoromethyl)phenyl)-4-methyl-1H-1,2,3-triazol-5-yl)methoxy)pyridazin-3-yl)octahydro-2,7-naphthyridin-1(2H)-one]
11 | 4.44 nM | 56.5% | O=C(O)c1ccc(CCCN2CCN(c3ccc(OCc4c(Cl)nnn4-c4ccc(C(F)F)cc4)nn3)CC2=O)cc1 [Example 146, 4-(3-(4-(6-((4-Chloro-1-(4-(difluoromethyl)phenyl)-1H-1,2,3-triazol-5-yl)methoxy)pyridazin-3-yl)-2-oxopiperazin-1-yl)propyl)benzoic acid]
